In US5164185A, “Pharmaceutical and cosmetic depigmentation compositions with a caffeic acid base” (priority 1989, dated 1992):

Columns and labels:
melanin biosynthesis = experiment: depigmenting action (studies on substances used singly or in combination); settings: in words
From the text: In these latter, at least one of the active ingredients may be liposomes.

[1] = tested on: fungus-derived tyrosinase; experiment: in vitro tyrosinase inhibition, dopachrome formation by visible spectrophotometry (475 nm); assay type: biochemical; settings: in words
From the text: The efficacy of the various combination according to the invention have been studied in vitro by measuring out, using visible spectrophotometry (475 nm), the quantity of dopachrome formed during the chain of tyrosine-oxidation reactions. These oxidation reactions are catalyzed in vitro using fungus-derived tyrosinase in the presence of a co-substrate (for example, a small quantity of L-dopa) in order to trigger the hydroxylation reaction of L-tyrosine into L-dopa, this latter being then oxidized by catalysis into dopaquinone, then into dopachrome, an intermediate product formed before the non-enzymatic oxidation reactions leading to melanin formation.
Accordingly, the concentration of dopachrome formed over time is monitored in the presence of various inhibitors of tyrosinasic activity.
The concentrations of inhibitors are expressed as molar percents in relation to the concentration of tyrosine present in the reactive medium.
The inhibitory effect may be expressed, in relation to the control curve (absence of inhibitor) by lowering of the quantity of dopachrome formed and/or by a slowing of dopachrome-formation kinetics. […]

melanocytes = settings: in words, prior art; cited from earlier work

SMILES	depigmenting action (melanin biosynthesis)	inhibition of tyrosinasic activity leading to limited formation of dopachrome [1]	irritation and cytotoxicity for melanocytes (melanocytes)
O=C(O)/C=C/c1ccc(O)c(O)c1 [caffeic acid]	especially interesting depigmenting action	inhibition of tyrosinasic activity	–
Oc1ccc(O)cc1 [hydroquinone]	–	–	especially irritating and cytotoxic for melanocytes
